Reference: US8722849B2, “Polypeptides” (Novo Nordisk A/S, priority 2011, dated 2014)
Read-outs that look alike come from different tables or passages of the source. Starred links: 1 amine or outer side, 2 acyl side, 3 side chain; linkers in the order of their positions; H or OH if unused. Positions of bridges follow the written chain, without caps; N, C: chain ends. Residues, ends and D or L forms follow the SMILES beside them. Groups on a side chain read outwards from the residue. *: point of attachment. C20 diacid = O=C(O)CCCCCCCCCCCCCCCCCCC(=O)*; C18 diacid = O=C(O)CCCCCCCCCCCCCCCCC(=O)*; γGlu = O=C(O)[C@H](CCC(=O)[*:2])N[*:1]; AEEA = NCCOCCOCC(=O)O

Legend:
[1] = Assay (III) ThT fibrillation assay for physical stability; type: physicochemical
Excerpt: ASSAY (III)—ThT Fibrillation Assays for the Assessment of Physical Stability of Protein formulations Low physical stability of a polypeptide may lead to amyloid fibril formation, which is observed as well-ordered, thread-like macromolecular structures in the sample eventually resulting in gel formation. This has traditionally been measured by visual inspection of the sample. However, that kind of measurement is very subjective and depending on the observer. Therefore, the application of a small molecule indicator probe is much more advantageous. Thioflavin T (ThT) is such a probe and has a distinct fluorescence signature when binding to fibrils [Naiki et al. (1989) Anal. Biochem. 177, 244-249; LeVine (1999) Methods. Enzymol. […], 274-284]. The time course for fibril formation can be described by a sigmoidal curve with the following expression [Nielsen et al. (2001) Biochemistry 40, 6036-6046]: [formula] Here, F is the ThT fluorescence at the time t. The constant t0 is the time needed to reach 50% of maximum fluorescence. […] Few of those intermediates nucleate to form a template onto which further intermediates may assembly and the fibrillation proceeds. The lag-time corresponds to the interval in which the critical mass of nucleus is built up and the apparent rate constant is the rate with which the fibril itself is formed. Sample Preparation Samples were prepared freshly before each assay. Each sample composition is described in each example. The pH of the sample was adjusted to the desired value using appropriate amounts of concentrated NaOH and HClO4 or HCl. Thioflavin T was added to the samples from a stock solution in H2O to a final concentration of 1 μM. Sample aliquots of 200 μl were placed in a 96 well microtiter plate (Packard OptiPlate™-96, white polystyrene). Usually, four or eight replica of each sample (corresponding to one test condition) were placed in one column of wells. The plate was sealed with Scotch Pad (Qiagen). Incubation and Fluorescence Measurement Incubation at given temperature, shaking and measurement of the ThT fluorescence emission were done in a Fluoroskan Ascent FL fluorescence platereader or Varioskan platereader (Thermo Labsystems). The temperature was adjusted to 37° C. The orbital shaking was adjusted to 960 rpm with an amplitude of 1 mm in all the presented data. Fluorescence measurement was done using excitation through a 444 nm filter and measurement of emission through a 485 nm filter. Each run was initiated by incubating the plate at the assay temperature for 10 min. The plate was measured every 20 minutes for a desired period of time. Between each measurement, the plate was shaken and heated as described. Data Handling The measurement points were saved in Microsoft Excel format for further processing and curve drawing and fitting was performed using GraphPad Prism. The background emission from ThT in the absence of fibrils was negligible. The data points are typically a mean of four or eight samples and shown with standard deviation error bars. Only data obtained in the same experiment (i.e. samples on the same plate) are presented in the same graph ensuring a relative measure of fibrillation between experiments. The data set may be fitted to Eq. (1). However, since full sigmodial curves in this case are not always achieved during the measurement time, the degree of fibrillation is expressed as ThT fluorescence tabulated as the mean of the samples and shown with the standard deviation at various time points. Measurement of Initial and Final Concentrations The polypeptide concentration in each of the tested formulations were measured both before application in the ThT fibrillation assay (“Initial”) and after completion of the ThT fibrillation (“After ThT assay”). Concentrations were determined by reverse HPLC methods using a pramlintide standard as a reference. Before measurement after completion 150 μl was collected from each of the replica and transferred to an Eppendorf tube. […]

[2] = Assay (IV) determination of solubility; type: physicochemical
How it was run: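 Solubility was profiled across pH 3.0–8.0 after 18 hours at room temperature: a ~500 nmol/ml aqueous polypeptide solution was diluted 1:1 into 100 mM glycylglycine or bistrispropane buffers. After centrifugation, HPLC gave the dissolved concentration.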

[3] = pH 3, pH 3.0, read-out: Solubility pH 3.0
[4] = pH 4, pH 4.0, 18 hours at room temperature, Table 2, read-out: Solubility pH 4.0
[5] = pH 4, pH 4.0, read-out: Solubility pH 4.0
[6] = pH 5, pH 5.0, read-out: Solubility pH 5.0
[7] = pH 6, pH 6.0, read-out: Solubility pH 6.0
[8] = pH 6.5, pH 6.5, read-out: Solubility pH 6.5
[9] = pH 7, pH 7.0, 18 hours at room temperature, Table 3, read-out: Solubility pH 7.0
[10] = pH 7, pH 7.0, read-out: Solubility pH 7.0
[11] = pH 7.5, pH 7.5, read-out: Solubility pH 7.5
[12] = pH 8, pH 8.0, read-out: Solubility pH 8.0

Row | Structure (SMILES) | ThT pH 4.0 lag time (h) ([1]; ThT fibrillation assay) | ThT pH 4.0 lag time ([1]; Table 8) [h] | ThT pH 4.0 lag time ([1]; Table 9) [h] | ThT pH 4.0 lag time ([1]; ThT fibrillation assay) [h] | solubility [2, 3] [µM] | solubility [2, 4] [µM] | solubility [2, 5] [µM] | solubility [2, 6] [µM] | solubility [2, 7] [µM] | solubility [2, 8] [µM] | solubility [2, 9] [µM] | solubility [2, 10] [µM] | solubility [2, 11] [µM] | solubility [2, 12] [µM]
1 | CC(C)C[C@H](NC(=O)[C@H](CCCNC(=N)N)NC(=O)[C@H](CCC(N)=O)NC(=O)[C@@H](NC(=O)[C@H](C)NC(=O)[C@@H]1CSSC[C@H](NC(=O)[C@H](Cc2c[nH]cn2)NC(=O)CC[C@H](NC(=O)CCCCCCCCCCCCCCCCCCC(=O)O)C(=O)O)C(=O)N[C@@H](CC(N)=O)C(=O)N[C@@H]([C@@H](C)O)C(=O)N[C@@H](C)C(=O)N[C@@H]([C@@H](C)O)C(=O)N1)[C@@H](C)O)C(=O)N[C@@H](C)C(=O)N[C@@H](CCC(=O)O)C(=O)N[C@@H](Cc1ccccc1)C(=O)N[C@@H](CC(C)C)C(=O)N[C@@H](Cc1c[nH]cn1)C(=O)N[C@@H](CCCNC(=N)N)C(=O)N[C@@H](CO)C(=O)N[C@@H](CO)C(=O)N[C@@H](CC(N)=O)C(=O)N[C@@H](CC(N)=O)C(=O)N[C@@H](Cc1ccccc1)C(=O)NCC(=O)N[C@@H](C)C(=O)N1CCC[C@H]1C(=O)N[C@@H](CC(C)C)C(=O)N[C@@H](CO)C(=O)N[C@@H](CO)C(=O)N[C@H](C(=O)N[C@@H](CC(N)=O)C(=O)N[C@H](C(=O)NCC(=O)N[C@@H](CO)C(=O)N[C@@H](CC(N)=O)C(=O)N[C@H](C(=O)N[C@@H](Cc1ccc(O)cc1)C(N)=O)[C@@H](C)O)C(C)C)[C@@H](C)O [Example 6, N-alpha-[(S)-4-Carboxy-4-(19-carboxynonadecanoylamino)butyryl]-[His1,Glu14,His17,Arg18,Ala25,Pro26,Ser28,Ser29]-pramlintide] ({C20 diacid-γGlu}-HCNTATCATQRLAEFLHRSSNNFGAPLSSTNVGSNTY-NH2; disulfide 2-7 (inferred)) | 14 |  |  |  |  |  |  |  |  |  |  |  |  | 
2 | CC[C@H](C)[C@H](NC(=O)[C@@H]1CCCN1C(=O)CNC(=O)[C@H](Cc1ccccc1)NC(=O)[C@H](CC(N)=O)NC(=O)[C@H](CCCCNC(=O)COCCOCCNC(=O)COCCOCCNC(=O)CC[C@H](NC(=O)CCCCCCCCCCCCCCCCC(=O)O)C(=O)O)NC(=O)[C@H](CO)NC(=O)[C@H](CO)NC(=O)[C@H](Cc1c[nH]cn1)NC(=O)[C@H](Cc1c[nH]cn1)NC(=O)[C@H](CC(C)C)NC(=O)[C@H](Cc1ccccc1)NC(=O)[C@H](CCC(=O)O)NC(=O)[C@H](C)NC(=O)[C@H](CC(C)C)NC(=O)[C@H](CCCNC(=N)N)NC(=O)[C@H](CCC(N)=O)NC(=O)[C@@H](NC(=O)[C@H](C)NC(=O)[C@@H]1CSSC[C@H](NC(=O)[C@@H](N)CCCCN)C(=O)N[C@@H](CC(N)=O)C(=O)N[C@@H]([C@@H](C)O)C(=O)N[C@@H](C)C(=O)N[C@@H]([C@@H](C)O)C(=O)N1)[C@@H](C)O)C(=O)N[C@@H](CC(C)C)C(=O)N1CCC[C@H]1C(=O)N1CCC[C@H]1C(=O)N[C@H](C(=O)N[C@@H](CC(N)=O)C(=O)N[C@H](C(=O)NCC(=O)N[C@@H](CO)C(=O)N[C@@H](CCC(=O)O)C(=O)N[C@H](C(=O)N[C@@H](Cc1ccc(O)cc1)C(N)=O)[C@@H](C)O)C(C)C)[C@@H](C)O [Example 74, N-epsilon21-[2-(2-{2-[2-(2-{2-[(S)-4-Carboxy-4-(17-carboxyheptadecanoylamino)butyrylamino]ethoxy}ethoxy)acetylamino]ethoxy}ethoxy)acetyl]-[Glu14,His17,Lys21,Glu35]-pramlintide] (H-KCNTATCATQRLAEFLHHSSK([AEEA-AEEA-γGlu-C18 diacid])NFGPILPPTNVGSETY-NH2; disulfide 2-7 (inferred)) | >45 | >45 | >45 | >45 |  |  |  |  |  |  |  |  |  | 
3 | CC[C@H](C)[C@H](NC(=O)[C@@H]1CCCN1C(=O)CNC(=O)[C@H](Cc1ccccc1)NC(=O)[C@H](CC(N)=O)NC(=O)[C@H](CC(N)=O)NC(=O)[C@H](CO)NC(=O)[C@H](CO)NC(=O)[C@H](Cc1c[nH]cn1)NC(=O)[C@H](CCCNC(=N)N)NC(=O)[C@H](CC(C)C)NC(=O)[C@H](Cc1ccccc1)NC(=O)[C@H](CCC(=O)O)NC(=O)[C@H](C)NC(=O)[C@H](CC(C)C)NC(=O)[C@H](CCCNC(=N)N)NC(=O)[C@H](CCC(N)=O)NC(=O)[C@@H](NC(=O)[C@H](C)NC(=O)[C@@H]1CSSC[C@H](NC(=O)[C@@H](N)CCCCNC(=O)CC[C@H](NC(=O)CCCCCCCCCCCCCCCCCCC(=O)O)C(=O)O)C(=O)N[C@@H](CC(N)=O)C(=O)N[C@@H]([C@@H](C)O)C(=O)N[C@@H](C)C(=O)N[C@@H]([C@@H](C)O)C(=O)N1)[C@@H](C)O)C(=O)N[C@@H](CC(C)C)C(=O)N1CCC[C@H]1C(=O)N1CCC[C@H]1C(=O)N[C@H](C(=O)N[C@@H](CC(N)=O)C(=O)N[C@H](C(=O)NCC(=O)N[C@@H](CO)C(=O)N[C@@H](CC(N)=O)C(=O)N[C@H](C(=O)N1CCC[C@H]1C(N)=O)[C@@H](C)O)C(C)C)[C@@H](C)O [Example 177, N-epsilon1-[(S)-4-Carboxy-4-(19-carboxynonadecanoylamino)butyryl]-[Glu14,Arg17,Pro37]-pramlintide] |  |  |  |  | > 200 | > 200 | > 200 | > 200 | > 200 | > 200 | > 200 | > 200 | > 200 | > 200
4 | CC[C@H](C)[C@H](NC(=O)[C@@H]1CCCN1C(=O)CNC(=O)[C@H](Cc1ccccc1)NC(=O)[C@H](CC(N)=O)NC(=O)[C@H](C)NC(=O)[C@H](CO)NC(=O)[C@H](CO)NC(=O)[C@H](Cc1c[nH]cn1)NC(=O)[C@@H](NC(=O)[C@H](CC(C)C)NC(=O)[C@H](Cc1ccccc1)NC(=O)[C@H](CCC(=O)O)NC(=O)[C@H](C)NC(=O)[C@H](CC(C)C)NC(=O)[C@H](CCCNC(=N)N)NC(=O)[C@H](CCC(N)=O)NC(=O)[C@@H](NC(=O)[C@H](C)NC(=O)[C@@H]1CSSC[C@H](NC(=O)[C@H](CCCCN)NC(=O)COCCOCCNC(=O)COCCOCCNC(=O)CC[C@H](NC(=O)CCCCCCCCCCCCCCCCCCC(=O)O)C(=O)O)C(=O)N[C@@H](CC(N)=O)C(=O)N[C@@H]([C@@H](C)O)C(=O)N[C@@H](C)C(=O)N[C@@H]([C@@H](C)O)C(=O)N1)[C@@H](C)O)C(C)C)C(=O)N[C@@H](CC(C)C)C(=O)N1CCC[C@H]1C(=O)N1CCC[C@H]1C(=O)N[C@H](C(=O)N[C@@H](CC(N)=O)C(=O)N[C@H](C(=O)NCC(=O)N[C@@H](CO)C(=O)N[C@@H](Cc1c[nH]cn1)C(=O)N[C@H](C(=O)N1CCC[C@H]1C(N)=O)[C@@H](C)O)C(C)C)[C@@H](C)O [Example 178, N-alpha-[2-(2-{2-[2-(2-{2-[(S)-4-Carboxy-4-(19-carboxyheptadecanoylamino)butyrylamino]ethoxy}ethoxy)acetylamino]ethoxy}ethoxy)acetyl]-[Glu14,Ala21,His35,Pro37]-pramlintide] ({C20 diacid-γGlu-AEEA-AEEA}-KCNTATCATQRLAEFLVHSSANFGPILPPTNVGSHTP-NH2; disulfide 2-7) |  |  |  |  | > 200 | > 200 | > 200 | > 200 | > 200 | > 200 | > 200 | > 200 | > 200 | > 200
